Experimental data from patent US20210137948A1, “TREATMENT OF INFECTIONS CAUSED BY NEISSERIA GONOCOCCUS USING A HALOGENATED SALICYLANILIDE” (priority 2018, published 2021).
Values after ≈ are worked out from the molar mass of the structure shown. Where two headings read alike, the source gives them in different places.

Legend:
rabbits = details: p.o.; cited from earlier work
rats = details: p.o., cited from earlier work
[1] = tested on: Neisseria gonorrhoeae CDC panel consisting of 48 isolates; test: Agar dilution MIC, CDC panel of 48 isolates (Example 2); type: cell-based; details: for MIC: Neisseria gonorrhoeae
Protocol: Neisseria gonorrhoeae (Neisseria gonocossus) were tested for antimicrobial susceptibility using agar dilution as described by the Clinical and Laboratory Standards Institute (CLSI), see reference (4).
The concentrations tested for each compound encompass the reported interpretive breakpoints and consist of 8 or more doubling dilutions, ensuring that there is one dilution below the lowest value of QC.
GC agar base +1% defined growth supplement.
Initial screening strains: Neisseria gonorrhoeae CDC panel consisting of 48 isolates. The strains were provided by Clinical and Environmental Microbiology Branch, Division of Healthcare Quality Promotion, CDC (Atlanta, US).
Dilution scheme for reference method: Prepare intermediate 100× antimicrobial agent solutions by making successive serial twofold dilutions. Then, add one part of the 100× antimicrobial solution to […] of molten agar. Plates containing no antimicrobial agent solutions are made for use as growth controls. It is important that no longer than one hour elapses between the time that the stock solution is thawed, the dilutions are prepared and added to the base medium and the plates are poured, see reference (5).
• Add appropriate dilutions of antimicrobial solution to molten test agars that have been allowed to equilibrate in a water bath to 50° C. • Mix the agar and antimicrobial solution thoroughly and pour (20 mL) into Petri dishes on a level surface. Pour quickly after mixing to prevent cooling and partial solidification in the mixing container. Avoid generating bubbles when mixing. • Allow the agar to solidify at room temperature and store them in sealed plastic bags at 2 to 8° C. for up to five days. Preferably use with 24 hours. • Allow plates stored at 2 to 8° C. to equilibrate to room temperature before use. Make certain that the agar surface is dry before inoculating the plates. If necessary, place the plates in an incubator or laminar flow hood for approximately 30 minutes with their lids ajar to hasten drying of the agar surface.
Inoculum preparation: Prepare a standardized inoculum for the agar dilution method by suspending isolated colonies of Neisseria gonorrhoeae selected from an 18-24 hour-old chocolate agar plate directly in Mueller Hinton Broth (MHB) to achieve the density equivalent to a 0.5 McFarland standard and adjusted to obtain a cell density of ˜1-2×10^8 CFU/mL. For N. gonorrhoeae, the McFarland solutions are made at a reading of ˜0.80 in densitometer (Grant Instruments DEN-1B Densitometer) because these values have been evaluated and correspond to the desired CFU/mL count.
Dilution of inoculum suspension: Cultures adjusted to the 0.5 McFarland standard contain approximately 1 to 2×10^8 CFU/mL with most species, and the final inoculum required is 10^4 CFU per spot. When using replicators with 3-mm pins that deliver ˜2.5 μL, dilute the 0.5 McFarland suspension 1:10 in sterile MHB to obtain a concentration of 10^7 CFU/mL. The final inoculum on the agar will be approximately 10^4 CFU per spot. Use the adjusted suspensions for final inoculation within 60 minutes of preparation, see reference (5).
The following procedure was followed: • Arrange the tubes containing the adjusted and diluted bacterial suspensions (10^7 CFU/mL) in order in a rack. Place an aliquot of each well-mixed suspension into the corresponding well in the replicator inoculum block (if being used). • Mark the agar plates for orientation of the inoculum spots. • Apply an aliquot of each inoculum (2.5 μL) to the agar surface, either with an inocula-replicating device or pipette, to obtain a final concentration of ˜10^4 CFU/spot. • Inoculate a growth-control plate (no antimicrobial agent) first and then, starting with the lowest concentration, inoculate the plates containing the different antimicrobial concentrations. […]

mice = details: p.o., cited from earlier work

O=C(Nc1ccc(Oc2ccc(Cl)cc2)c(Cl)c1)c1cc(I)cc(I)c1O [Rafoxanide, rafoxanide]
LD50 (rabbits): 3200 mg/kg
LD50, median (rats; median of the studies): > 1490 mg/kg
LD50 (rats): 980->2000 mg/kg
MIC ([1]; read-out: MIC value, for 46 of the 48 isolates of N. gonorrhoeae): ≤ 50.2 µg/mL
MIC ([1]; read-out: Minimal inhibitory concentration, Neisseria gonorrhoeae strain CDC # 165): ≤ 0.25 µg/mL
MIC ([1]; read-out: Minimal inhibitory concentration, Neisseria gonorrhoeae strain CDC # 166): ≤ 0.25 µg/mL
MIC ([1]; read-out: Minimal inhibitory concentration, Neisseria gonorrhoeae strain CDC # 167): ≤ 0.25 µg/mL
MIC ([1]; read-out: Minimal inhibitory concentration, Neisseria gonorrhoeae strain CDC # 169): ≤ 0.25 µg/mL
MIC ([1]; read-out: Minimal inhibitory concentration, Neisseria gonorrhoeae strain CDC # 170): ≤ 0.25 µg/mL
MIC ([1]; read-out: Minimal inhibitory concentration, Neisseria gonorrhoeae strain CDC # 171): ≤ 0.25 µg/mL
MIC ([1]; read-out: Minimal inhibitory concentration, Neisseria gonorrhoeae strain CDC # 172): ≤ 0.25 µg/mL
MIC ([1]; read-out: Minimal inhibitory concentration, Neisseria gonorrhoeae strain CDC # 173): ≤ 0.25 µg/mL
MIC ([1]; read-out: Minimal inhibitory concentration, Neisseria gonorrhoeae strain CDC # 174): ≤ 0.25 µg/mL
MIC ([1]; read-out: Minimal inhibitory concentration, Neisseria gonorrhoeae strain CDC # 175): ≤ 0.25 µg/mL
MIC ([1]; read-out: Minimal inhibitory concentration, Neisseria gonorrhoeae strain CDC # 176): ≤ 0.25 µg/mL
MIC ([1]; read-out: Minimal inhibitory concentration, Neisseria gonorrhoeae strain CDC # 177): ≤ 0.25 µg/mL
MIC ([1]; read-out: Minimal inhibitory concentration, Neisseria gonorrhoeae strain CDC # 178): ≤ 0.25 µg/mL
MIC ([1]; read-out: Minimal inhibitory concentration, Neisseria gonorrhoeae strain CDC # 179): ≤ 0.25 µg/mL
MIC ([1]; read-out: Minimal inhibitory concentration, Neisseria gonorrhoeae strain CDC # 180): ≤ 0.25 µg/mL
MIC ([1]; read-out: Minimal inhibitory concentration, Neisseria gonorrhoeae strain CDC # 181): ≤ 0.25 µg/mL
MIC ([1]; read-out: Minimal inhibitory concentration, Neisseria gonorrhoeae strain CDC # 182): 2 µg/mL (≈ 3.19 µM)
MIC ([1]; read-out: Minimal inhibitory concentration, Neisseria gonorrhoeae strain CDC # 183): ≤ 0.25 µg/mL
MIC ([1]; read-out: Minimal inhibitory concentration, Neisseria gonorrhoeae strain CDC # 184): ≤ 0.25 µg/mL
MIC ([1]; read-out: Minimal inhibitory concentration, Neisseria gonorrhoeae strain CDC # 185): ≤ 0.25 µg/mL
MIC ([1]; read-out: Minimal inhibitory concentration, Neisseria gonorrhoeae strain CDC # 186): ≤ 0.25 µg/mL
MIC ([1]; read-out: Minimal inhibitory concentration, Neisseria gonorrhoeae strain CDC # 187): ≤ 0.25 µg/mL
MIC ([1]; read-out: Minimal inhibitory concentration, Neisseria gonorrhoeae strain CDC # 188): ≤ 0.25 µg/mL
MIC ([1]; read-out: Minimal inhibitory concentration, Neisseria gonorrhoeae strain CDC # 189): ≤ 0.25 µg/mL
MIC ([1]; read-out: Minimal inhibitory concentration, Neisseria gonorrhoeae strain CDC # 190): ≤ 0.25 µg/mL
MIC ([1]; read-out: Minimal inhibitory concentration, Neisseria gonorrhoeae strain CDC # 191): ≤ 0.25 µg/mL
MIC ([1]; read-out: Minimal inhibitory concentration, Neisseria gonorrhoeae strain CDC # 192): ≤ 0.25 µg/mL
MIC ([1]; read-out: Minimal inhibitory concentration, Neisseria gonorrhoeae strain CDC # 193): ≤ 0.25 µg/mL
MIC ([1]; read-out: Minimal inhibitory concentration, Neisseria gonorrhoeae strain CDC # 194): ≤ 0.25 µg/mL
MIC ([1]; read-out: Minimal inhibitory concentration, Neisseria gonorrhoeae strain CDC # 195): ≤ 0.25 µg/mL
MIC ([1]; read-out: Minimal inhibitory concentration, Neisseria gonorrhoeae strain CDC # 196): ≤ 0.25 µg/mL
MIC ([1]; read-out: Minimal inhibitory concentration, Neisseria gonorrhoeae strain CDC # 198): ≤ 0.25 µg/mL
MIC ([1]; read-out: Minimal inhibitory concentration, Neisseria gonorrhoeae strain CDC # 199): ≤ 0.25 µg/mL
MIC ([1]; read-out: Minimal inhibitory concentration, Neisseria gonorrhoeae strain CDC # 200): ≤ 0.25 µg/mL
MIC ([1]; read-out: Minimal inhibitory concentration, Neisseria gonorrhoeae strain CDC # 201): ≤ 0.25 µg/mL
MIC ([1]; read-out: Minimal inhibitory concentration, Neisseria gonorrhoeae strain CDC # 202): ≤ 0.25 µg/mL
MIC ([1]; read-out: Minimal inhibitory concentration, Neisseria gonorrhoeae strain CDC # 203): ≤ 0.25 µg/mL
MIC ([1]; read-out: Minimal inhibitory concentration, Neisseria gonorrhoeae strain CDC # 204): 0.5 µg/mL (≈ 0.799 µM)
MIC ([1]; read-out: Minimal inhibitory concentration, Neisseria gonorrhoeae strain CDC # 205): ≤ 0.25 µg/mL
MIC ([1]; read-out: Minimal inhibitory concentration, Neisseria gonorrhoeae strain CDC # 206): ≤ 0.25 µg/mL
MIC ([1]; read-out: Minimal inhibitory concentration, Neisseria gonorrhoeae strain CDC # 207): ≤ 0.25 µg/mL
MIC ([1]; read-out: Minimal inhibitory concentration, Neisseria gonorrhoeae strain CDC # 208): ≤ 0.25 µg/mL
MIC ([1]; read-out: Minimal inhibitory concentration, Neisseria gonorrhoeae strain CDC # 209): ≤ 0.25 µg/mL
MIC ([1]; read-out: Minimal inhibitory concentration, Neisseria gonorrhoeae strain CDC # 210): ≤ 0.25 µg/mL
MIC ([1]; read-out: Minimal inhibitory concentration, Neisseria gonorrhoeae strain CDC # 211): ≤ 0.25 µg/mL
MIC ([1]; read-out: Minimal inhibitory concentration, Neisseria gonorrhoeae strain CDC # 212): ≤ 0.25 µg/mL
MIC ([1]; read-out: Minimal inhibitory concentration, Neisseria gonorrhoeae strain CDC # 213): ≤ 0.25 µg/mL
MIC ([1]; read-out: Minimal inhibitory concentration, Neisseria gonorrhoeae strain CDC # 214): ≤ 0.25 µg/mL
in vitro activity (in words) ([1]; against N. gonococcus (N. gonorrhoeae), Example 2 conclusion): Good in vitro activity
LD50, median (mice; median of the studies): 266 mg/kg
LD50 (mice): 232 to 300 mg/kg
